Laboratory results as given in the supplement of paper PMC9938120.

Columns and labels:
Experiment in all cases: drug sensitivity score (DSS3, normalised partial AUC of % inhibition dose-response) (DSS (score)); higher = more sensitive (stronger inhibition of viability); extreme values may be limits of the assay
FMOC02_1 = patient-derived low-grade serous ovarian cancer cells; conditions: 72 h; library: FO5A; assay format: 2D, 384-well, CellTiter-Glo
In short: (§1)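 Early-passage (under 10) patient-derived ovarian cancer cells were dispensed onto 384-well flat clear-bottom plates pre-plated with compounds at five concentrations spanning a 10,000-fold range, then incubated 72 h at 37 °C, 5% CO2. Viability was read with CellTiter-Glo, and the data were processed in Breeze. The drug sensitivity score is a partial area under the percent-inhibition dose-response curve divided by the log of the upper asymptote, with higher values meaning greater sensitivity.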

FMOC02_2 = patient-derived low-grade serous ovarian cancer cells; conditions: 72 h; library: FO5A; assay format: 2D, 384-well, CellTiter-Glo
In short: as §1

FMOC02_3 = patient-derived low-grade serous ovarian cancer cells; conditions: 72 h; library: FO5A; assay format: 2D, 384-well, CellTiter-Glo
In short: as §1

FMOC03 = patient-derived mucinous ovarian cancer cells; conditions: 72 h; library: FO5A; assay format: 2D, 384-well, CellTiter-Glo
In short: as §1

FMOC04 = patient-derived high-grade serous ovarian cancer cells; conditions: 72 h; library: FO5A; assay format: 2D, 384-well, CellTiter-Glo
In short: as §1

FMOC06 = patient-derived mucinous ovarian cancer cells; conditions: 72 h; library: FO5A; assay format: 2D, 384-well, CellTiter-Glo
In short: as §1

FMOC09 = patient-derived high-grade serous ovarian cancer cells; conditions: 72 h; library: FO5A; assay format: 2D, 384-well, CellTiter-Glo
In short: as §1

FMOC11 = patient-derived high-grade serous ovarian cancer cells; conditions: 72 h; library: FO5A; assay format: 2D, 384-well, CellTiter-Glo
In short: as §1

FMOC14 = patient-derived high-grade serous ovarian cancer cells; conditions: 72 h; library: FO5A; assay format: 2D, 384-well, CellTiter-Glo
In short: as §1

FMOC17 = patient-derived low-grade serous ovarian cancer cells; conditions: 72 h; library: FO5A; assay format: 2D, 384-well, CellTiter-Glo
In short: as §1

FMOC22 = patient-derived mucinous ovarian cancer cells; conditions: 72 h; library: FO5A; assay format: 2D, 384-well, CellTiter-Glo
In short: as §1

FMOC24 = patient-derived high-grade serous ovarian cancer cells; conditions: 72 h; library: FO5A; assay format: 2D, 384-well, CellTiter-Glo
In short: as §1

FMOC25_1 = patient-derived low-grade serous ovarian cancer cells; conditions: 72 h; library: FO4B; assay format: 2D, 384-well, CellTiter-Glo
In short: as §1

FMOC25_2 = patient-derived low-grade serous ovarian cancer cells; conditions: 72 h; library: FO5A; assay format: 2D, 384-well, CellTiter-Glo
In short: as §1

FMOC27 = patient-derived low-grade serous ovarian cancer cells; conditions: 72 h; library: FO5A; assay format: 2D, 384-well, CellTiter-Glo
In short: as §1

FMOC28 = patient-derived low-grade serous ovarian cancer cells; conditions: 72 h; library: FO5A; assay format: 2D, 384-well, CellTiter-Glo
In short: as §1

For `CNC(=O)c1ccc(C)c(-n2c(C)cc(OCc3ccc(F)cc3F)c(Br)c2=O)c1`, the drug sensitivity score (FMOC02_1) was 0, the drug sensitivity score (FMOC02_2) was 0 and the drug sensitivity score (FMOC02_3) was 0. For the same compound, the drug sensitivity score (FMOC03) was 0, the drug sensitivity score (FMOC04) was 0 and the drug sensitivity score (FMOC06) was 0. It also gave a drug sensitivity score (FMOC09) of 0, a drug sensitivity score (FMOC11) of 0 and a drug sensitivity score (FMOC14) of 0. For the same compound, the drug sensitivity score (FMOC17) was 0.3, the drug sensitivity score (FMOC22) was 0 and the drug sensitivity score (FMOC24) was 0. It also gave a drug sensitivity score (FMOC25_1) of 0, a drug sensitivity score (FMOC25_2) of 0 and a drug sensitivity score (FMOC27) of 0. For the same compound, the drug sensitivity score (FMOC28) was 0.

For `O=C(O)CNC(=O)c1c(O)c2ccccc2n(Cc2ccccc2)c1=O` [IOX-2], the drug sensitivity score (FMOC02_1) was 0.5, the drug sensitivity score (FMOC02_2) was 0.5 and the drug sensitivity score (FMOC02_3) was 0. It also gave a drug sensitivity score (FMOC03) of 0, a drug sensitivity score (FMOC04) of 0 and a drug sensitivity score (FMOC06) of 0. For the same compound, the drug sensitivity score (FMOC09) was 0, the drug sensitivity score (FMOC11) was 0 and the drug sensitivity score (FMOC14) was 0. For the same compound, the drug sensitivity score (FMOC17) was 0, the drug sensitivity score (FMOC22) was 0 and the drug sensitivity score (FMOC24) was 1.75. It also gave a drug sensitivity score (FMOC25_1) of 0, a drug sensitivity score (FMOC25_2) of 0.9 and a drug sensitivity score (FMOC27) of 0. The drug sensitivity score (FMOC28) was 3.2.

Compound `CC(C)C[C@H](NC(=O)[C@@H](COC(C)(C)C)NC(=O)[C@H](Cc1ccc(O)cc1)NC(=O)[C@H](CO)NC(=O)[C@H](Cc1c[nH]c2ccccc12)NC(=O)[C@H](Cc1cnc[nH]1)NC(=O)[C@@H]1CCC(=O)N1)C(=O)N[C@@H](CCCNC(=N)N)C(=O)N1CCC[C@H]1C(=O)NNC(N)=O` [Goserelin] has a drug sensitivity score (FMOC02_1) of 0, a drug sensitivity score (FMOC02_2) of 0 and a drug sensitivity score (FMOC02_3) of 0. For the same compound, the drug sensitivity score (FMOC03) was 0, the drug sensitivity score (FMOC04) was 0 and the drug sensitivity score (FMOC06) was 0. For the same compound, the drug sensitivity score (FMOC09) was 0, the drug sensitivity score (FMOC11) was 0 and the drug sensitivity score (FMOC14) was 0. It also gave a drug sensitivity score (FMOC17) of 0, a drug sensitivity score (FMOC22) of 0 and a drug sensitivity score (FMOC24) of 0. For the same compound, the drug sensitivity score (FMOC25_1) was 0, the drug sensitivity score (FMOC25_2) was 0 and the drug sensitivity score (FMOC27) was 0. For the same compound, the drug sensitivity score (FMOC28) was 0.

Work on `COc1cc2c(NC3CCN(C(C)C)CC3)nc(C3CCCCC3)nc2cc1OCCCN1CCCC1` [UNC0638] yielded a drug sensitivity score (FMOC02_1) of 5.5, a drug sensitivity score (FMOC02_2) of 0.5 and a drug sensitivity score (FMOC02_3) of 5.4. For the same compound, the drug sensitivity score (FMOC03) was 0, the drug sensitivity score (FMOC04) was 4.3 and the drug sensitivity score (FMOC06) was 1.7. For the same compound, the drug sensitivity score (FMOC09) was 1.9, the drug sensitivity score (FMOC11) was 3.5 and the drug sensitivity score (FMOC14) was 3.1. It also gave a drug sensitivity score (FMOC17) of 4.7, a drug sensitivity score (FMOC22) of 2 and a drug sensitivity score (FMOC24) of 7.6. It also gave a drug sensitivity score (FMOC25_1) of 0.2, a drug sensitivity score (FMOC25_2) of 6.5 and a drug sensitivity score (FMOC27) of 2.1. For the same compound, the drug sensitivity score (FMOC28) was 0.

For `CC(=O)Nc1ccc(C(=O)Nc2ccccc2N)cc1` [Tacedinaline], the drug sensitivity score (FMOC02_1) was 0.7, the drug sensitivity score (FMOC02_2) was 1.3 and the drug sensitivity score (FMOC02_3) was 2. The drug sensitivity score (FMOC03) was 0, the drug sensitivity score (FMOC04) was 0 and the drug sensitivity score (FMOC06) was 3.7. For the same compound, the drug sensitivity score (FMOC09) was 0, the drug sensitivity score (FMOC11) was 1 and the drug sensitivity score (FMOC14) was 0.6. For the same compound, the drug sensitivity score (FMOC17) was 1.1, the drug sensitivity score (FMOC22) was 0 and the drug sensitivity score (FMOC24) was 2.05. The drug sensitivity score (FMOC25_1) was 0, the drug sensitivity score (FMOC25_2) was 0 and the drug sensitivity score (FMOC27) was 0. For the same compound, the drug sensitivity score (FMOC28) was 1.7.

For `O=C1NC(=O)[C@@H](c2cn3c4c(cccc24)CCC3)[C@@H]1c1c[nH]c2ccccc12` [Tivantinib], the drug sensitivity score (FMOC02_1) was 4.7, the drug sensitivity score (FMOC02_2) was 3.7 and the drug sensitivity score (FMOC02_3) was 5. The drug sensitivity score (FMOC03) was 3.1, the drug sensitivity score (FMOC04) was 5.1 and the drug sensitivity score (FMOC06) was 2.7. It also gave a drug sensitivity score (FMOC09) of 4.3, a drug sensitivity score (FMOC11) of 2.8 and a drug sensitivity score (FMOC14) of 0. For the same compound, the drug sensitivity score (FMOC17) was 4.9, the drug sensitivity score (FMOC22) was 2.5 and the drug sensitivity score (FMOC24) was 0.65. The drug sensitivity score (FMOC25_1) was 4.2, the drug sensitivity score (FMOC25_2) was 2.1 and the drug sensitivity score (FMOC27) was 2.5. It also gave a drug sensitivity score (FMOC28) of 3.3.

Compound `O=C1CCC(N2C(=O)c3ccccc3C2=O)C(=O)N1` (stereo unspecified) [Thalidomide] has a drug sensitivity score (FMOC02_1) of 0, a drug sensitivity score (FMOC02_2) of 0 and a drug sensitivity score (FMOC02_3) of 0. For the same compound, the drug sensitivity score (FMOC03) was 0, the drug sensitivity score (FMOC04) was 0 and the drug sensitivity score (FMOC06) was 0. It also gave a drug sensitivity score (FMOC09) of 0, a drug sensitivity score (FMOC11) of 0 and a drug sensitivity score (FMOC14) of 0. For the same compound, the drug sensitivity score (FMOC17) was 0, the drug sensitivity score (FMOC22) was 0 and the drug sensitivity score (FMOC24) was 0. The drug sensitivity score (FMOC25_1) was 0, the drug sensitivity score (FMOC25_2) was 0 and the drug sensitivity score (FMOC27) was 0.1. It also gave a drug sensitivity score (FMOC28) of 0.

`CCN(CC)CCN(Cc1ccc(-c2ccc(C(F)(F)F)cc2)cc1)C(=O)Cn1c(SCc2ccc(F)cc2)nc(=O)c2c1CCC2` [Darapladib] gave a drug sensitivity score (FMOC02_1) of 0, a drug sensitivity score (FMOC02_2) of 0 and a drug sensitivity score (FMOC02_3) of 1.6. For the same compound, the drug sensitivity score (FMOC03) was 0, the drug sensitivity score (FMOC04) was 0.25 and the drug sensitivity score (FMOC06) was 0. It also gave a drug sensitivity score (FMOC09) of 0, a drug sensitivity score (FMOC11) of 0.1 and a drug sensitivity score (FMOC14) of 1.3. The drug sensitivity score (FMOC17) was 0, the drug sensitivity score (FMOC22) was 0 and the drug sensitivity score (FMOC24) was 4.2. For the same compound, the drug sensitivity score (FMOC25_1) was 0.1, the drug sensitivity score (FMOC25_2) was 0 and the drug sensitivity score (FMOC27) was 0. It also gave a drug sensitivity score (FMOC28) of 1.2.

`CCCC(CCC)C(=O)O` [Valproic acid] showed a drug sensitivity score (FMOC02_1) of 0, a drug sensitivity score (FMOC02_2) of 0 and a drug sensitivity score (FMOC02_3) of 0. The drug sensitivity score (FMOC03) was 0, the drug sensitivity score (FMOC04) was 0 and the drug sensitivity score (FMOC06) was 0. It also gave a drug sensitivity score (FMOC09) of 0, a drug sensitivity score (FMOC11) of 0 and a drug sensitivity score (FMOC14) of 0. It also gave a drug sensitivity score (FMOC17) of 0, a drug sensitivity score (FMOC22) of 0 and a drug sensitivity score (FMOC24) of 0. It also gave a drug sensitivity score (FMOC25_1) of 0, a drug sensitivity score (FMOC25_2) of 0 and a drug sensitivity score (FMOC27) of 0. For the same compound, the drug sensitivity score (FMOC28) was 0.1.

`Cc1cc(C(C)Nc2ccccc2)c2nc(N3CCOCC3)cc(=O)n2c1` (stereo unspecified) [TGX-221] showed a drug sensitivity score (FMOC02_1) of 2, a drug sensitivity score (FMOC02_2) of 3.3 and a drug sensitivity score (FMOC02_3) of 0.8. The drug sensitivity score (FMOC03) was 1, the drug sensitivity score (FMOC04) was 0.35 and the drug sensitivity score (FMOC06) was 1.1. It also gave a drug sensitivity score (FMOC09) of 0, a drug sensitivity score (FMOC11) of 0.3 and a drug sensitivity score (FMOC14) of 0. It also gave a drug sensitivity score (FMOC17) of 2.4, a drug sensitivity score (FMOC22) of 0 and a drug sensitivity score (FMOC24) of 0.75. The drug sensitivity score (FMOC25_1) was 1.7, the drug sensitivity score (FMOC25_2) was 2.6 and the drug sensitivity score (FMOC27) was 2. It also gave a drug sensitivity score (FMOC28) of 0.

With `CO[C@H]1C[C@@H]2CC[C@@H](C)[C@@](O)(O2)C(=O)C(=O)N2CCCC[C@H]2C(=O)O[C@H]([C@H](C)C[C@@H]2CC[C@@H](O)[C@H](OC)C2)CC(=O)[C@H](C)/C=C(\C)[C@@H](O)[C@@H](OC)C(=O)[C@H](C)C[C@H](C)/C=C/C=C/C=C/1C` [Sirolimus] the drug sensitivity score (FMOC02_1) was 6.3, the drug sensitivity score (FMOC02_2) was 7.3 and the drug sensitivity score (FMOC02_3) was 10. It also gave a drug sensitivity score (FMOC03) of 2, a drug sensitivity score (FMOC04) of 1.1 and a drug sensitivity score (FMOC06) of 2.5. For the same compound, the drug sensitivity score (FMOC09) was 1.4, the drug sensitivity score (FMOC11) was 2.1 and the drug sensitivity score (FMOC14) was 1. For the same compound, the drug sensitivity score (FMOC17) was 4.7, the drug sensitivity score (FMOC22) was 4 and the drug sensitivity score (FMOC24) was 6.1. It also gave a drug sensitivity score (FMOC25_1) of 8.9, a drug sensitivity score (FMOC25_2) of 6.3 and a drug sensitivity score (FMOC27) of 3.1. For the same compound, the drug sensitivity score (FMOC28) was 3.3.
